Measurements: patent EP2987533B1, “7-substituted piperazin-1-yl fluoroquinolone compounds, their use in the treatment of cancer, pharmaceutical compositions and a method for preparation” (priority 2014, dated 2016)

Tests used:
UACC-257 = test: NCI five-dose SRB growth assay; format: cell-based; details: Homo sapiens; UACC-257 (Melanoma), 48 h
CNS cancer = test: NCI five-dose SRB assay, subpanel average; details: 48 h
[1] = system: full panel of about 60 human tumor cell lines; test: NCI five-dose SRB assay, full panel mean; details: 48 h
MDA-MB-435 = test: NCI five-dose SRB growth assay; format: cell-based; details: Homo sapiens; MDA-MB-435 (Melanoma), 48 h
prostate cancer = test: NCI five-dose SRB assay, subpanel average; details: 48 h
OVCAR-5 = test: NCI five-dose SRB growth assay; format: cell-based; details: Homo sapiens; OVCAR-5 (Ovarian Cancer), 48 h
RXF 393 = test: NCI five-dose SRB growth assay; format: cell-based; details: Homo sapiens; RXF 393 (Renal Cancer), 48 h
colon cancer = test: NCI five-dose SRB assay, subpanel average; details: 48 h
NCI/ADR-RES = test: NCI one-dose SRB growth assay; format: cell-based; details: Homo sapiens; NCI/ADR-RES (Ovarian Cancer), 10^-5 M, 48 h; read-out: % Growth Inhibition (GI %)
Summary of the method: (§1)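 Single dose 10^-5M, 48 h exposure. SRB protein staining, absorbance read. Output: % growth vs untreated controls.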

OVCAR-4 [2] = test: NCI one-dose SRB growth assay; format: cell-based; details: Homo sapiens; OVCAR-4 (Ovarian Cancer), 10^-5 M, 48 h; read-out: % Growth Inhibition (GI %)
Summary of the method: as §1

SF-295 = test: NCI one-dose SRB growth assay; format: cell-based; details: Homo sapiens; SF-295 (CNS Cancer), 10^-5 M, 48 h; read-out: % Growth Inhibition (GI %)
Summary of the method: as §1

MOLT-4 [3] = test: NCI one-dose SRB growth assay; format: cell-based; details: Homo sapiens; MOLT-4 (Leukemia), 10^-5 M, 48 h; read-out: % Growth Inhibition (GI %)
Summary of the method: as §1

UO-31 = test: NCI one-dose SRB growth assay; format: cell-based; details: Homo sapiens; UO-31 (Renal Cancer), 10^-5 M, 48 h; read-out: % Growth Inhibition (GI %)
Summary of the method: as §1

CCRF-CEM = test: NCI one-dose SRB growth assay; format: cell-based; details: Homo sapiens; CCRF-CEM (Leukemia), 10^-5 M, 48 h; read-out: % Growth Inhibition (GI %)
786-0 = test: NCI one-dose SRB growth assay; format: cell-based; details: Homo sapiens; 786-0 (Renal Cancer), 10^-5 M, 48 h; read-out: % Growth Inhibition (GI %)
Summary of the method: as §1

PRMI-8226 = test: NCI one-dose SRB growth assay; format: cell-based; details: Homo sapiens; PRMI-8226 (Leukemia), 10^-5 M, 48 h; read-out: % Growth Inhibition (GI %)
Summary of the method: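 A one-concentration test (10^-5M) is run for 48 h. Protein-bound SRB dye is quantified by absorbance, and growth of treated cells is expressed relative to untreated cells, as a percentage.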

breast cancer = test: NCI five-dose SRB assay, subpanel average; details: 48 h
[4] = system: 60 human tumor cell line panel; test: NCI 60 cell line one-dose SRB primary anticancer assay; format: cell-based; details: 60 cell lines assay in one dose, 10µM (title; head prints 10.0 mM), 48 h
Method: A primary anticancer assay was performed for an approximately 60 human tumor cell line panel derived from nine neoplastic diseases, in accordance with the protocol of the Drug Evaluation Branch, National Cancer Institute, Bethesda, MD (Monks A. et al., J. Natl. Cancer Inst 1991, 83, 757-766; Boyd M.R. and Paull K.D., Drug. Dev. Res. 1995, 34, 91-109; Shoemaker R.H., Nat. Rev. Cancer 2006, 6, 813-823). Briefly, tested compounds were added to the culture at a single concentration (10^-5M), and the cultures were incubated for 48 h. End point determinations were made with a protein binding dye, sulforhodamine B (SRB). The results for each tested compound were reported as the growth percentage of the treated cells when compared to that of the untreated control cells. The percentage growth was evaluated spectrophotometrically versus controls not treated with test agents.

CAKI-1 = test: NCI five-dose SRB growth assay; format: cell-based; details: Homo sapiens; CAKI-1 (Renal Cancer), 48 h
leukemia = test: NCI five-dose SRB assay, subpanel average; details: 48 h
A498 = test: NCI five-dose SRB growth assay; format: cell-based; details: Homo sapiens; A498 (Renal Cancer), 48 h
MCF7 = test: NCI five-dose SRB growth assay; format: cell-based; details: Homo sapiens; MCF7 (Breast Cancer), 48 h
OVCAR-8 = test: NCI five-dose SRB growth assay; format: cell-based; details: Homo sapiens; OVCAR-8 (Ovarian Cancer), 48 h
renal cancer = test: NCI five-dose SRB assay, subpanel average; details: 48 h
MOLT-4 [5] = test: NCI five-dose SRB growth assay; format: cell-based; details: Homo sapiens; MOLT-4 (Leukemia), 48 h
ovarian cancer = test: NCI five-dose SRB assay, subpanel average; details: 48 h
SK-MEL-5 = test: NCI five-dose SRB growth assay; format: cell-based; details: Homo sapiens; SK-MEL-5 (Melanoma), 48 h
OVCAR-4 [6] = test: NCI five-dose SRB growth assay; format: cell-based; details: Homo sapiens; OVCAR-4 (Ovarian Cancer), 48 h
T-47D = test: NCI five-dose SRB growth assay; format: cell-based; details: Homo sapiens, T47D; T-47D (Breast Cancer), 48 h
[7] = Homo sapiens, read-out: GI50 (median growth inhibitory)
[8] = Homo sapiens, read-out: LC50 (median lethal)

O=C(O)c1cn(C2CC2)c2cc(N3CCN(S(=O)(=O)c4ccc(Cl)c(Cl)c4)CC3)c(F)cc2c1=O [Compound 3b]
GI50 (UACC-257): 2480 nM
GI50 (CNS cancer; [7]): 3.68 µM
CC50 (CNS cancer; [8]): > 100 µM
TGI (total growth inhibitory) (CNS cancer; average over CNS cancer subpanel, five concentrations): c (Compounds showed values > 100µM)
CC50 ([1]; Homo sapiens, 60 cell, read-out: LC50 MG-MID (Full panel mean-graph midpoint)): 95.5 µM
GI50 ([1]; Homo sapiens, read-out: GI50 MG-MID (Full panel mean-graph midpoint)): 3.09 µM
TGI MG-MID (Full panel mean-graph midpoint) ([1]; full panel, five concentrations): 60.25 µM
GI50 (MDA-MB-435): 2970 nM
GI50 (prostate cancer; [7]): 3.29 µM
CC50 (prostate cancer; [8]): > 100 µM
TGI (total growth inhibitory) (prostate cancer; average over prostate cancer subpanel, five concentrations): c (Compounds showed values > 100µM)
GI50 (OVCAR-5): 4.14 µM
GI50 (RXF 393): 2980 nM
GI50 (colon cancer; [7]): 3.79 µM
CC50 (colon cancer; [8]): > 100 µM
TGI (total growth inhibitory) (colon cancer; average over colon cancer subpanel, five concentrations): 87.41 µM
inhibition at 10 µM (NCI/ADR-RES): 46.5%
inhibition at 10 µM (OVCAR-4 [2]): 79.2%
inhibition at 10 µM (SF-295): > 100%
inhibition at 10 µM (MOLT-4 [3]): 96.6%
inhibition at 10 µM (UO-31): 90%
inhibition at 10 µM (CCRF-CEM): 83.1%
inhibition at 10 µM (786-0): 72.2%
inhibition at 10 µM (PRMI-8226): 95.1%
GI50 (breast cancer; [7]): 3.04 µM
CC50 (breast cancer; [8]): > 100 µM
TGI (total growth inhibitory) (breast cancer; average over breast cancer subpanel, five concentrations): 81.37 µM
PCE (Positive cytotoxic effect: ratio between number of cell lines with percentage growth inhibition from 10 to >100 and total number of cell lines) [4]: 58/58
RGI % (Range of growth inhibition percentage) [4]: >100.0 to 46.49%
inhibition at 10 µM ([4]; Homo sapiens, read-out: MGI % (Mean growth inhibition percentage)): 89.2%
GI50 (CAKI-1): 2710 nM
GI50 (leukemia; [7]): 3.02 µM
CC50 (leukemia; [8]): > 100 µM
TGI (total growth inhibitory) (leukemia; average over leukemia subpanel, five concentrations): 62.55 µM
GI50 (A498): 2910 nM
GI50 (MCF7): 2840 nM
GI50 (OVCAR-8): 3.33 µM
GI50 (renal cancer; [7]): 3.19 µM
CC50 (renal cancer; [8]): > 100 µM
TGI (total growth inhibitory) (renal cancer; average over renal cancer subpanel, five concentrations): 87.07 µM
GI50 (MOLT-4 [5]): 4 µM
GI50 (ovarian cancer; [7]): 3.39 µM
CC50 (ovarian cancer; [8]): > 100 µM
TGI (total growth inhibitory) (ovarian cancer; average over ovarian cancer subpanel, five concentrations): 88.90 µM
GI50 (SK-MEL-5): 2040 nM
GI50 (OVCAR-4 [6]): 2280 nM
GI50 (T-47D): 3.77 µM
